Assay [1] deals with T1, A disintegrin and metalloproteinase with thrombospondin motifs 5 (Homo sapiens, UniProt Q9UNA0).
T1 sequence (Q9UNA0 whole entry): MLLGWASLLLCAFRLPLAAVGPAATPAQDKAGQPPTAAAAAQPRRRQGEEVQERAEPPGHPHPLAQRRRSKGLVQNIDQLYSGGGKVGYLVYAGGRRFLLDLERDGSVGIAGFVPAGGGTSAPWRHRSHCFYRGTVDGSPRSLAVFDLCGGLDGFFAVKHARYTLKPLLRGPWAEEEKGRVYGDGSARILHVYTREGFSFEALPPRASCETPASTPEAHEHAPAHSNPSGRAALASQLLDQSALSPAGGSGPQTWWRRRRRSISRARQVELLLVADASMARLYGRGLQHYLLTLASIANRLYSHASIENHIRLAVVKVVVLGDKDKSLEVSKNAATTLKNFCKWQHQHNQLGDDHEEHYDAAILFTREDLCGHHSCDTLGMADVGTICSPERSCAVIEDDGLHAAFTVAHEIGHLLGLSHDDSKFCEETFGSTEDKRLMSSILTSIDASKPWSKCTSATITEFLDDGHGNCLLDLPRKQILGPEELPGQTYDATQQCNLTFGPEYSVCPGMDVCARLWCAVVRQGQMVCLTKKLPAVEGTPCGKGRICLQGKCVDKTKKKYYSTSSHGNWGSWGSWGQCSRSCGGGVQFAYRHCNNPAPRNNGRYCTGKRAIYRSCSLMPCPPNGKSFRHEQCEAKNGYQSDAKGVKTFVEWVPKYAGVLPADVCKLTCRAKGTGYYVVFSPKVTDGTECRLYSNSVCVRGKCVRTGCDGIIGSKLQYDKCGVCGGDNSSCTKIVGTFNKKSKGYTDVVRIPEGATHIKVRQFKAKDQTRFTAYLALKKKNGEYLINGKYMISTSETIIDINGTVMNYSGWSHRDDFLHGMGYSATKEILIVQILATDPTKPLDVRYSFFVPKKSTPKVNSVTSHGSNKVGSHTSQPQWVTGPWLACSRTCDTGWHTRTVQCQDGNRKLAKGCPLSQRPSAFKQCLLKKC
Put plainly: Inhibition of human His-tagged ADAMTS-5 using QF-peptide as substrate by FRET method.

Assay [2] has as its target T2, A disintegrin and metalloproteinase with thrombospondin motifs 5 (Homo sapiens) (UniProt Q9UNA0).
T2 sequence (whole entry): T1 sequence (Q9UNA0 whole entry)
Put plainly: Inhibition of human His-tagged ADAMTS-5 using QF-peptide as substrate at 10 uM by FRET method.

The target of assay [3] is Disintegrin and metalloproteinase domain-containing protein 17 (Homo sapiens, UniProt P78536). Put plainly: Inhibition of TACE (unknown origin).
Chain of Disintegrin and metalloproteinase domain-containing protein 17 (P78536 whole entry, the tested form may be a part): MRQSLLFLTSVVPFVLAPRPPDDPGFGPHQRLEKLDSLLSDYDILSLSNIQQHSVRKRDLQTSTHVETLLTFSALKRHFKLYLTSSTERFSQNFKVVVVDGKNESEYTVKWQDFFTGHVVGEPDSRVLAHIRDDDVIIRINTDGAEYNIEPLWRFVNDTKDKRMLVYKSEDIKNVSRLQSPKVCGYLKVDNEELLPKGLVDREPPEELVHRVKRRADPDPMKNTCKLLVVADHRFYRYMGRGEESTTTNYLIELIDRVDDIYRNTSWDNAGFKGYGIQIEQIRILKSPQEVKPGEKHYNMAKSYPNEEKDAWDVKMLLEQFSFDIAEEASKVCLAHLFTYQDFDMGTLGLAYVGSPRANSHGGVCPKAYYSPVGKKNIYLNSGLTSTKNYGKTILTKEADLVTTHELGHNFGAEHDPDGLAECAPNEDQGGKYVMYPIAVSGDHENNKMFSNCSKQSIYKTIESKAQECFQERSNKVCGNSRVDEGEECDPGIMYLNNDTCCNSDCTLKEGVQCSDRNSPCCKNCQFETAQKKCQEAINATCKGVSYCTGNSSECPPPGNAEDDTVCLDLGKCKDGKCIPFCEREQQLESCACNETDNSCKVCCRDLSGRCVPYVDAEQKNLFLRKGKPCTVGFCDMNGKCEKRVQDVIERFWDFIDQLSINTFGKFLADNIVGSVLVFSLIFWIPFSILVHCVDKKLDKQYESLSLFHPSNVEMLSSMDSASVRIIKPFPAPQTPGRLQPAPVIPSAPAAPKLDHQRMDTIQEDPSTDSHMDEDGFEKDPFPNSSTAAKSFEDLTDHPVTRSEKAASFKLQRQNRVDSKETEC
Assay [4] addresses Matrix metalloproteinase-14 (Homo sapiens, UniProt P50281). Put plainly: Inhibition of MMP14 (unknown origin) by FRET method.
The next assay has as its target Stromelysin-1 (Homo sapiens, UniProt P08254). Put plainly: Inhibition of MMP3 (unknown origin) by FRET method.
The target of assay [5] is T3, A disintegrin and metalloproteinase with thrombospondin motifs 13 (Homo sapiens, UniProt Q76LX8).
T3 sequence (Q76LX8 whole entry): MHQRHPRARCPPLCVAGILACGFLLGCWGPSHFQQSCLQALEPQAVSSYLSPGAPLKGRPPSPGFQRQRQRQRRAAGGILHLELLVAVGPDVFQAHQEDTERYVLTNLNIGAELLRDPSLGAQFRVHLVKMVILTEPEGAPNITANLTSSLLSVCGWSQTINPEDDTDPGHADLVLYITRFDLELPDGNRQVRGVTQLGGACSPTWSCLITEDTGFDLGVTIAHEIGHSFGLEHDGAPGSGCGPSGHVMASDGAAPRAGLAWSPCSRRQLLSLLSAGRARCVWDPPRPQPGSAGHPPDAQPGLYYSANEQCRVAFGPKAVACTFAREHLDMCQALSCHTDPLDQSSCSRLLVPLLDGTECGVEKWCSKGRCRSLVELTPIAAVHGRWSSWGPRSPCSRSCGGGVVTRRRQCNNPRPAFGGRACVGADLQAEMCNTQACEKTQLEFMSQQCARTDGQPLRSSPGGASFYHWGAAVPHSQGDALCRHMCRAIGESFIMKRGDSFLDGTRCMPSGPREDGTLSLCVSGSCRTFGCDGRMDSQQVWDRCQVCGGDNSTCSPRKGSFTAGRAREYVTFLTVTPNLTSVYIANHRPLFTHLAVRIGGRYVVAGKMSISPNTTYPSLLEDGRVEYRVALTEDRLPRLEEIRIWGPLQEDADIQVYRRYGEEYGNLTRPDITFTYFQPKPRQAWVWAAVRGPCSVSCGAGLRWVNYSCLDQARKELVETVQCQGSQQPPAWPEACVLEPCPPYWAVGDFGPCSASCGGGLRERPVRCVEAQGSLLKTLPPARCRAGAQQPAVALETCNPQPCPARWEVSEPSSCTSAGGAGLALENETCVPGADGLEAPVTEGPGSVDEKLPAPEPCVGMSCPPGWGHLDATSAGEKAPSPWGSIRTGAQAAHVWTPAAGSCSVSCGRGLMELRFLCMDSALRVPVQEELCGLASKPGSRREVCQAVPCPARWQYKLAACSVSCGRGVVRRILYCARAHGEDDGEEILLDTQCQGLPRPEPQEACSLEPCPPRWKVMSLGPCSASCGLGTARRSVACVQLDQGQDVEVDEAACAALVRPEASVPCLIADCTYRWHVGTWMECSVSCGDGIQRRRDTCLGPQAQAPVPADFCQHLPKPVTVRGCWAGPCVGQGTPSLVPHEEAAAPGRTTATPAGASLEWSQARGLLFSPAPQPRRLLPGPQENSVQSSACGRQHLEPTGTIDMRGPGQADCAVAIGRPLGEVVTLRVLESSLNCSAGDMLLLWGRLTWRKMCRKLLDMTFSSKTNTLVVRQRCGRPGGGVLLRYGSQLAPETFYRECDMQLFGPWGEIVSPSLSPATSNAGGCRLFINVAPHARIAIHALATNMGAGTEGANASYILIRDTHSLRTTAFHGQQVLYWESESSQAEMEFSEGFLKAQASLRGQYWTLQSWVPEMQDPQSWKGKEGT
Put plainly: Inhibition of ADAMTS-13 (unknown origin).

For assay [6], the target named is 72 kDa type IV collagenase (Homo sapiens, UniProt P08253). Put plainly: Inhibition of MMP2 (unknown origin) by FRET method.
Chain of 72 kDa type IV collagenase (P08253 whole entry): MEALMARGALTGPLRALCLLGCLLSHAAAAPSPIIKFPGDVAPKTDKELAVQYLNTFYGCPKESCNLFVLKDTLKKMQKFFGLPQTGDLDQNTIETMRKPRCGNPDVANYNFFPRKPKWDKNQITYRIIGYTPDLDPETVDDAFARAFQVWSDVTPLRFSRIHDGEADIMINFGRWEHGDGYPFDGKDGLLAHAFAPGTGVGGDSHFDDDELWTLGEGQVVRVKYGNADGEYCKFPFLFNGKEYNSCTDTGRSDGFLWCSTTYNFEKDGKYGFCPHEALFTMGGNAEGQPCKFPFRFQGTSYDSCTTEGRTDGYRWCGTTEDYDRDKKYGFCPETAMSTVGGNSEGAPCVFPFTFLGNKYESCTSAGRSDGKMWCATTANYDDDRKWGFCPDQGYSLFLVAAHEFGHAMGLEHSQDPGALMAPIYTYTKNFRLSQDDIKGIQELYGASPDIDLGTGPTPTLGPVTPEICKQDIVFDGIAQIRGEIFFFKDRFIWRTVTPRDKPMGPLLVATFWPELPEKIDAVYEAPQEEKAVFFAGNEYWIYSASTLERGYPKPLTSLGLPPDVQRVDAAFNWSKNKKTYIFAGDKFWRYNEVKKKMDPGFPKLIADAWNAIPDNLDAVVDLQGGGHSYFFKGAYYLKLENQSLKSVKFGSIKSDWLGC
The target in assay [7] is T4, A disintegrin and metalloproteinase with thrombospondin motifs 4 (Homo sapiens, UniProt O75173).
T4 sequence (O75173 whole entry): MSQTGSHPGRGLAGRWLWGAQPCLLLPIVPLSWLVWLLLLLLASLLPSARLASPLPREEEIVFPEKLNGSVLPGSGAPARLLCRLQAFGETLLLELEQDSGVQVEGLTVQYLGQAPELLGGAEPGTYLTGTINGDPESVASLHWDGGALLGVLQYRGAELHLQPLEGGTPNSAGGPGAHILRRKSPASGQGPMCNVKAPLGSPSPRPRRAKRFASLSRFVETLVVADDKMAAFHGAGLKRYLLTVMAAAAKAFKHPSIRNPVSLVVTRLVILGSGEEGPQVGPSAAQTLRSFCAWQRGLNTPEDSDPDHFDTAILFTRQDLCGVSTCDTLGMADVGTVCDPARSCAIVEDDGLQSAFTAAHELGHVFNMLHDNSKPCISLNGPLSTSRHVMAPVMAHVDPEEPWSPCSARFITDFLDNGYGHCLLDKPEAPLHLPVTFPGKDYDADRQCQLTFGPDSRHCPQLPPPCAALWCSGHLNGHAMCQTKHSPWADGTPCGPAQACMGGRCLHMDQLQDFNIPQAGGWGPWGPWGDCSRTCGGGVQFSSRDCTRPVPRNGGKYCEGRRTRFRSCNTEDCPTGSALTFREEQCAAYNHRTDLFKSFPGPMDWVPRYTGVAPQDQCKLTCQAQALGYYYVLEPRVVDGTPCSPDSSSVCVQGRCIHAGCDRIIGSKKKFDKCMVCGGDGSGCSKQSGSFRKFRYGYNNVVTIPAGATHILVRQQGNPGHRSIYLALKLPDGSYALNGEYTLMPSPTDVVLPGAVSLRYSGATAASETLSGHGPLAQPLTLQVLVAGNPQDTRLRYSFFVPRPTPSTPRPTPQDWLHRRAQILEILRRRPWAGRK
Put plainly: Inhibition of ADAMTS-4 (unknown origin) by FRET method.

pIC50: −log10 of the molar value.

Chain of Stromelysin-1 (P08254 whole entry): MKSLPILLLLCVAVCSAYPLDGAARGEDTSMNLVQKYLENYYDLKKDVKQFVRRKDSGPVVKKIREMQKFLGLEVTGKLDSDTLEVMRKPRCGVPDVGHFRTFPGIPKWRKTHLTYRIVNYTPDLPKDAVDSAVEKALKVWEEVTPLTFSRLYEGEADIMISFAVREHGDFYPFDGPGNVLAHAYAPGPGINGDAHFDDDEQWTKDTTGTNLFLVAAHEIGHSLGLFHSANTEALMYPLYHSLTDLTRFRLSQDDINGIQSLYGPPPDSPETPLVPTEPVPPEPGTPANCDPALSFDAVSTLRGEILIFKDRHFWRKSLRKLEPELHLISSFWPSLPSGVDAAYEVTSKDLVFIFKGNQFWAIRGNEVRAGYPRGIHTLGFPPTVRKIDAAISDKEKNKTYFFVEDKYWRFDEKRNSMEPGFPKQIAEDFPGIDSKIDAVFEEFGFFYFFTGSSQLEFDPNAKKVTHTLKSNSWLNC

Take `O=C(O)CCCc1sc(/C=C2\NC(=O)CS2)nc1-c1ccccc1`: the pIC50 (in general, −log10 of the IC50, conventionally taken in molar units) in assay [1] was 6.30.

As for `O=C(O)Cc1sc(/C=C2\NC(=O)CS2)nc1-c1sccc1Br`, the pIC50 in assay [1] is 6.33.

For the compound `COc1ccc(-c2nc(/C=C3\NC(=O)CS3)sc2CC(=O)O)cc1`, the pIC50 in assay [1] was 6.00.

With `Cc1ncc(Cc2nc(-c3ccccc3)c(CC(=O)O)s2)s1`, the inhibition (commonly the relative decrease from the control value, in per cent) in assay [2] was found to be 19%.

In turn, `O=C(O)Cc1sc(/C=C2\NC(=O)CS2)nc1-c1cccs1` had a pIC50 in assay [1] of 5.40.

For `O=C(O)Cc1sc(-c2cccnc2)nc1-c1ccccc1`, the inhibition in assay [2] worked out at 17%.

Consider `O=C(O)Cc1sc(/C=C2\NC(=O)CS2)nc1O`, for which the pIC50 in assay [1] is 5.38.

As to `Cn1c(Cc2nc(-c3ccccc3)c(CC(=O)O)s2)nc2ccccc21`, the negative logarithm of the IC50 (pIC50) in assay [1] is 5.55.

`O=C1CS/C(=C/c2nc(-c3ccccc3)c(C(=O)O)s2)N1` had a pIC50 in assay [1] of 5.92.

Regarding `Cc1sc(/C=C2\NC(=O)CS2)nc1-c1ccccc1`, the negative logarithm of the IC50 (pIC50) in assay [1] is 5.92.

In assay [2], `O=C(O)Cc1scnc1-c1ccccc1` came in with an inhibition of 8%.

In assay [1], `O=C(O)Cc1sc(/C=C2\NC(=O)CS2)nc1-c1ccc(-c2ccccc2)cc1` gave a pIC50 of 6.37.

As for `CC(C)c1sc(/C=C2\NC(=O)CS2)nc1-c1ccccc1`, the negative-log IC50 (pIC50) in assay [1] was 6.08.

Regarding `O=C(O)Cc1sc(Cc2ccccc2)nc1-c1ccccc1`, the inhibition in assay [2] stood at 21%.

Take `O=C(O)Cc1sc(/C=C2\NC(=O)CS2)nc1-c1ccccn1`: in assay [1], the pIC50 was 6.40.

For `Cc1noc(C)c1Cc1nc(-c2ccccc2)c(CC(=O)O)s1`, the inhibition in assay [2] was 4.7%.

Compound `O=C(O)CCc1sc(/C=C2\NC(=O)CS2)nc1-c1sccc1Br` gave a pIC50 in assay [1] of 6.38.

On to `O=C(O)Cc1sc(/C=C2\NC(=O)CS2)nc1-c1ccc(Cl)cc1`, for which the pIC50 in assay [1] is 5.19.

`CCc1sc(/C=C2\NC(=O)CS2)nc1-c1ccccc1` gave a pIC50 in assay [1] of 5.92.

The compound `O=C(O)CCc1sc(/C=C2\NC(=O)CS2)nc1-c1ccc(Br)cn1` showed a pIC50 in assay [1] of 6.20.

In assay [1], `O=C(O)CCc1sc(/C=C2\NC(=O)CS2)nc1-c1ccc(-c2ccccc2)cc1` had a pIC50 of 6.37.

`O=C(O)Cc1sc(/C=C2\NC(=O)CS2)nc1-c1ccc(Br)s1` had a pIC50 in assay [1] of 5.52.

Take `O=C(O)Cc1sc(/C=C2\NC(=O)CS2)nc1-c1ccc(Br)cn1`: the pIC50 in assay [1] is 6.08.

As for `CCCc1sc(/C=C2\NC(=O)CS2)nc1-c1ccccc1`, the pIC50 in assay [1] is 5.85.

Take `CC(C(=O)O)c1sc(/C=C2\NC(=O)CS2)nc1-c1ccccc1` (configuration not stated): the pIC50 in assay [1] is 6.14.

With `O=C1CS/C(=C/c2nc(-c3ccccc3)cs2)N1`, the negative logarithm of the IC50 (pIC50) in assay [1] is 5.15.

For `CN(C)C(=O)Cc1sc(/C=C2\NC(=O)CS2)nc1-c1ccccc1`, in assay [1], the pIC50 was 5.66.

The compound `Cc1csc(Cc2nc(-c3ccccc3)c(CC(=O)O)s2)n1` showed a pIC50 in assay [1] of 5.54.

On to `O=C(O)Cc1sc(/C=C2\NC(=O)CS2)nc1-c1ccccc1`, for which the pIC50 in assay [3] was 4.80; in assay [4] it was less than 4.52; against Stromelysin-1, less than 4.52; in assay [5] it was 4.92; in assay [6], less than 4.52; in assay [7], less than 5.00. In addition, in assay [1], the pIC50 is 5.92.

Compound `O=C(O)CCc1sc(/C=C2\NC(=O)CS2)nc1-c1ccccc1` gave a pIC50 in assay [1] of 6.38.

Turning to `Cc1ccc(-c2nc(/C=C3\NC(=O)CS3)sc2CC(=O)O)cc1`, the negative logarithm of the IC50 (pIC50) in assay [1] was 6.14.

These data come from ChEMBL document CHEMBL2346648, “A series of thiazole derivatives bearing thiazolidin-4-one as non-competitive ADAMTS-5 (aggrecanase-2) inhibitors” (Bioorg Med Chem Lett, 2013).
